Measured values taken from PubChem BioAssay AID328 (DTP/NCI, 2004).
Several values for one entry are separate records, joined by “and”; a condition that tells them apart may be missing. Equal entries are not always repeated. Inconclusive results and toxic doses are left out.

Tested on: BDF1 mice, P388 leukemia ip, median survival T/C
Test: NCI In Vivo Anticancer Drug Screen. Data for tumor model P388 Leukemia (intraperitoneal) in B6D2F1 (BDF1) mice
Settings: endpoint: median survival time, higher = longer survival
Summary of the method: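 Reported as T/C, where T is the survival measurement in dosed animals and C the same measurement in vehicle controls.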

[1] = dose: 50.0 mg/kg/injection, schedule: Q01DX009 (ip), vehicle: Klucel (hydroxypropylcellulose) (HPC)
[2] = dose: 100.0 mg/kg/injection, schedule: Q04DX003 (ip), vehicle: saline with Tween-80
[3] = dose: 200.0 mg/kg/injection, schedule: Q04DX003 (ip), vehicle: saline with Tween-80
[4] = dose: 25.0 mg/kg/injection, schedule: Q01DX009 (ip), vehicle: saline with Tween-80
[5] = dose: 50.0 mg/kg/injection, schedule: Q01DX009 (ip), vehicle: saline with Tween-80
[6] = dose: 100.0 mg/kg/injection, schedule: Q01DX009 (ip), vehicle: saline with Tween-80
[7] = dose: 200.0 mg/kg/injection, schedule: Q01DX009 (ip), vehicle: saline with Tween-80
[8] = dose: 100.0 mg/kg/injection, schedule: Q01DX009 (ip), vehicle: Klucel (hydroxypropylcellulose) (HPC)
[9] = dose: 200.0 mg/kg/injection, schedule: Q01DX009 (ip), vehicle: Klucel (hydroxypropylcellulose) (HPC)
[10] = dose: 400.0 mg/kg/injection, schedule: Q01DX009 (ip), vehicle: saline with Tween-80
[11] = dose: 400.0 mg/kg/injection, schedule: Q04DX003 (ip), vehicle: saline with Tween-80
[12] = dose: 50.0 mg/kg/injection, schedule: Q04DX003 (ip), vehicle: saline with Tween-80
[13] = dose: 400.0 mg/kg/injection, schedule: Q01DX009 (ip), vehicle: Klucel (hydroxypropylcellulose) (HPC)

[NH-]CC[S-].[NH-]CC[S-].[NH-]CC[S-].[NH-]CC[S-].[Ni+2].[Ni+2].[Ni]
T/C (dose: 2.0 mg/kg/injection, schedule: Q01DX009 (ip), vehicle: saline): 105 % of control
T/C (dose: 3.12 mg/kg/injection, schedule: Q04DX003 (ip), vehicle: saline): 100 % of control
T/C (dose: 4.0 mg/kg/injection, schedule: Q01DX009 (ip), vehicle: saline): 100 % of control
T/C (dose: 8.0 mg/kg/injection, schedule: Q01DX009 (ip), vehicle: saline): 98 % of control
T/C (dose: 16.0 mg/kg/injection, schedule: Q01DX009 (ip), vehicle: saline): 87 % of control and 117 % of control

COc1ccc(C(=O)/C=C/c2ccccc2)c(O)c1CC=C(C)C
T/C (dose: 1.25 mg/kg/injection, schedule: Q01DX009 (ip), vehicle: Klucel (hydroxypropylcellulose) (HPC)): 114 % of control
T/C (dose: 2.5 mg/kg/injection, schedule: Q01DX009 (ip), vehicle: Klucel (hydroxypropylcellulose) (HPC)): 118 % of control
T/C (dose: 5.0 mg/kg/injection, schedule: Q01DX009 (ip), vehicle: Klucel (hydroxypropylcellulose) (HPC)): 91 % of control
T/C (dose: 10.0 mg/kg/injection, schedule: Q01DX009 (ip), vehicle: Klucel (hydroxypropylcellulose) (HPC)): 91 % of control
T/C (dose: 20.0 mg/kg/injection, schedule: Q01DX009 (ip), vehicle: Klucel (hydroxypropylcellulose) (HPC)): 95 % of control
T/C (dose: 40.0 mg/kg/injection, schedule: Q01DX009 (ip), vehicle: Klucel (hydroxypropylcellulose) (HPC)): 91 % of control

O=C1CSCC(=O)O1
T/C [1]: 105 % of control
T/C (dose: 50.0 mg/kg/injection, schedule: Q04DX003 (ip), vehicle: Klucel (hydroxypropylcellulose) (HPC)): 95 % of control
T/C (dose: 100.0 mg/kg/injection, schedule: Q04DX003 (ip), vehicle: Klucel (hydroxypropylcellulose) (HPC)): 95 % of control
T/C (dose: 200.0 mg/kg/injection, schedule: Q04DX003 (ip), vehicle: Klucel (hydroxypropylcellulose) (HPC)): 109 % of control

O=C1N(Cl)C(=O)C(c2ccc(C(F)(F)F)cc2)(c2ccc(C(F)(F)F)cc2)N1Cl
T/C (dose: 1.56 mg/kg/injection, schedule: Q01DX009 (ip), vehicle: saline with Tween-80): 104 % of control
T/C (dose: 3.12 mg/kg/injection, schedule: Q01DX009 (ip), vehicle: saline with Tween-80): 100 % of control
T/C (dose: 6.25 mg/kg/injection, schedule: Q01DX009 (ip), vehicle: saline with Tween-80): 100 % of control
T/C (dose: 12.5 mg/kg/injection, schedule: Q01DX009 (ip), vehicle: saline with Tween-80): 109 % of control
T/C [2]: 100 % of control
T/C [3]: 109 % of control

CC1C=CCC(C)(C)C1 (centres undefined)
T/C [4]: 104 % of control
T/C [5]: 100 % of control
T/C [6]: 100 % of control and 113 % of control

O=C(O)CCC(=O)c1ccc(C2CCCCCC2)cc1
T/C [5]: 110 % of control
T/C [6]: 115 % of control
T/C (dose: 100.0 mg/kg/injection, schedule: Q04DX003 (ip), vehicle: saline): 95 % of control
T/C [7]: 110 % of control
T/C (dose: 400.0 mg/kg/injection, schedule: Q04DX003 (ip), vehicle: saline): 100 % of control

Cc1[nH]c(=O)[nH]c(=O)c1C
T/C [1]: 104 % of control
T/C [8]: 109 % of control
T/C [9]: 104 % of control

Oc1ccccc1C=Nc1ccccc1.Oc1ccccc1C=Nc1ccccc1.[Ni+2]
T/C (dose: 25.0 mg/kg/injection, schedule: Q04DX003 (ip), vehicle: saline sonified): 100 % of control
T/C (dose: 50.0 mg/kg/injection, schedule: Q04DX003 (ip), vehicle: saline sonified): 113 % of control

c1cc2cnc3cccc4cnc(c1)c2c43
T/C (dose: 100.0 mg/kg/injection, schedule: Q01DX001 (ip), vehicle: saline sonified): 100 % of control
T/C (dose: 400.0 mg/kg/injection, schedule: Q01DX001 (ip), vehicle: saline sonified): 100 % of control

C[N+](C)=C1C=CC(=C2C=CSC=C2)C=C1
T/C (dose: 1.56 mg/kg/injection, schedule: Q01DX009 (ip), vehicle: saline): 117 % of control
T/C (dose: 3.12 mg/kg/injection, schedule: Q01DX009 (ip), vehicle: saline): 124 % of control
T/C (dose: 6.25 mg/kg/injection, schedule: Q01DX009 (ip), vehicle: saline): 123 % of control
T/C (dose: 12.5 mg/kg/injection, schedule: Q01DX009 (ip), vehicle: saline): 100 % of control

O=C(C(Br)C(Br)c1ccccc1)C(Br)C(Br)c1ccccc1 (centres undefined)
T/C [6]: 104 % of control
T/C [7]: 104 % of control
T/C [10]: 100 % of control

CSCSCC(NS(=O)(=O)c1ccc(C)cc1)C(=O)O (centres undefined)
T/C [2]: 104 % of control
T/C [3]: 109 % of control
T/C [11]: 100 % of control

CCN(CCO)CCNc1ccc(C)c2sc3ccccc3c(=O)c12
T/C [4]: 122 % of control
T/C (dose: 66.0 mg/kg/injection, schedule: Q04DX003 (ip), vehicle: saline with Tween-80): 103 % of control
T/C [6]: 104 % of control
T/C [2]: 117 % of control

Cc1cc(N(CCCl)CCCl)ccc1C=Nc1ccc(F)cc1
T/C [11]: 150 % of control
T/C (dose: 600.0 mg/kg/injection, schedule: Q04DX003 (ip), vehicle: saline with Tween-80): 179 % of control

CC(=O)O[C@@H]1[C@H]2O[C@H]2[C@H]2O[C@@]2(COC(=O)c2ccccc2)[C@H]1OC(C)=O
T/C (dose: 100.0 mg/kg/injection, schedule: Q01DX010 (ip), vehicle: steriod suspending solution): 90 % of control
T/C (dose: 200.0 mg/kg/injection, schedule: Q01DX010 (ip), vehicle: steriod suspending solution): 90 % of control
T/C (dose: 400.0 mg/kg/injection, schedule: Q01DX010 (ip), vehicle: steriod suspending solution): 86 % of control

O=C(OCCCl)c1ccc(Cl)cc1
T/C [12]: 108 % of control
T/C [2]: 100 % of control
T/C [3]: 94 % of control
T/C [11]: 94 % of control

COC(=S)SCN(CSC(=S)OC)c1ccccc1Cl
T/C [6]: 118 % of control
T/C [10]: 159 % of control
T/C (dose: 600.0 mg/kg/injection, schedule: Q01DX009 (ip), vehicle: saline with Tween-80): 158 % of control

CC1CN1P(=O)(N1CC2CCC(CC2)C1)N1CC1C (centres undefined)
T/C (dose: 14.0 mg/kg/injection, schedule: Q01DX009 (ip), vehicle: saline with Tween-80): 113 % of control
T/C (dose: 21.0 mg/kg/injection, schedule: Q01DX009 (ip), vehicle: saline with Tween-80): 122 % of control
T/C (dose: 33.0 mg/kg/injection, schedule: Q01DX009 (ip), vehicle: saline with Tween-80): 159 % of control
T/C [5]: 154 % of control
T/C [6]: 86 % of control

COC(COC(N)=O)C1=C(N2CC2)C(=O)C(C)=C(N2CC2)C1=O (centres undefined)
T/C (dose: 0.03 mg/kg/injection, schedule: Q01DX009 (ip), vehicle: saline): 123 % of control
T/C (dose: 0.12 mg/kg/injection, schedule: Q01DX009 (ip), vehicle: saline): 154 % of control
T/C (dose: 0.25 mg/kg/injection, schedule: Q01DX009 (ip), vehicle: saline): 190 % of control
T/C (dose: 0.5 mg/kg/injection, schedule: Q01DX009 (ip), vehicle: saline): 258 % of control

Cc1cccc(C)c1N=CNc1c(C)cccc1C.[Cu+2]
T/C [4]: 103 % of control
T/C [5]: 86 % of control

COc1cc2c(c(OC)c1OC)-c1ccc(N)c(=O)cc1[C@@H](NC(C)=O)CC2
T/C (dose: 0.5 mg/kg/injection, schedule: Q01DX010 (ip), vehicle: saline): 113 % of control
T/C (dose: 2.0 mg/kg/injection, schedule: Q01DX010 (ip), vehicle: saline): 118 % of control

CC(=O)OCC(=O)[C@@]1(O)CC[C@H]2[C@@H]3CCC4=CC(=O)[C@H](C)C[C@]4(C)[C@H]3[C@@H](O)C[C@@]21C
T/C [8]: 118 % of control
T/C [9]: 109 % of control
T/C [13]: 118 % of control

C[C@@H]1C[C@@]2(O[C@@H]2C)C(=O)O[C@@H]2CCN3CC=C(COC(=O)[C@]1(C)O)[C@H]23
T/C (dose: 20.0 mg/kg/injection, schedule: Q01DX010 (ip), vehicle: carboxymethylcellulose (CMC)): 110 % of control
T/C (dose: 40.0 mg/kg/injection, schedule: Q01DX010 (ip), vehicle: carboxymethylcellulose (CMC)): 100 % of control

NC(=O)N/C=C1\CCCOC1=O
T/C [12]: 111 % of control
T/C [2]: 101 % of control
T/C [3]: 104 % of control
T/C [11]: 109 % of control

CC(C)CNC(=S)N/N=C\C=N/NC(=S)NCC(C)C
T/C (dose: 75.0 mg/kg/injection, schedule: Q01DX009 (ip), vehicle: saline with Tween-80): 98 % of control
T/C (dose: 150.0 mg/kg/injection, schedule: Q01DX009 (ip), vehicle: saline with Tween-80): 91 % of control

COc1c(C)cc(Br)c2c1C(CCN(C)S(=O)(=O)Cc1ccccc1)CCC2 (centres undefined)
T/C [8]: 100 % of control
T/C [9]: 110 % of control
T/C [13]: 110 % of control
